Test results from patent publication US8598374B2, “GPR120 receptor agonists and uses thereof” (Metabolex, Inc, priority 2008, dated 2013).

Target: T1, human GPR120 (Homo sapiens, UniProt Q5NUL3)
T1 construct: Flag (DYKDDDDK) (N); host or cells: HEK293 cells co-expressing Gqi5
T1 sequence (Q5NUL3 1-361): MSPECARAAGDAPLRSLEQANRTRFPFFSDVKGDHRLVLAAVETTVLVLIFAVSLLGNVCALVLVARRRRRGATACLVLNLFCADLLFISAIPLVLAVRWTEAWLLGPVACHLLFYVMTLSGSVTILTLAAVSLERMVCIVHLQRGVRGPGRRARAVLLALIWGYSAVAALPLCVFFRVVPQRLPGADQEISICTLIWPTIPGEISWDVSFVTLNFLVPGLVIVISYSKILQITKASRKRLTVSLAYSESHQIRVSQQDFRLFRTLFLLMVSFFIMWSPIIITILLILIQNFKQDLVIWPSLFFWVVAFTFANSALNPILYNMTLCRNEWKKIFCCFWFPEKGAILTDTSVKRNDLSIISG
Test: Intracellular Ca2+ assay (FLIPR Calcium 4, Flexstation) in human GPR120 stable cell line
Format: cell-based
Conditions: for concentration at which activity reached a maximum: typical value, reference compound; for % Activity (Ex. 25 Reference Compound): % activity at 2.5 μM compared to the maximal activity of the compound of Example 25 at 2.5 μM, HEK293 cells co-expressing Gqi5; for EC50: human GPR120 stably expressing cells, eight concentrations from 0.00001 to 20 μM
Description: Human GPR120 stable cell line was purchased from Multispan Inc (26219 Eden Landing Road, Hayward, Calif. 94545). This GPR120 cell line was generated in HEK293 cells co-expressing Gqi5. In this cell line, the Flag epitope tag (DYKDDDDK) was fused to the amino terminus of human GPR120 protein.
The concentration of intracellular Ca^2+ was measured as described below. Human GPR120 cells were plated in 96 well plates (Poly-D-Lysine coated black/clear Plate, Greiner Bio-One) at 70,000 cells per well and cultured overnight in conditions of 37° C. and 5% CO2. A Ca^2+ assay dye stock solution was prepared by adding 10 mL of assay buffer (HBSS/20 mM HEPES, pH 7.4) to FLIPR Calcium 4 Assay Bulk Kit (Molecular Devices). The 10 mL of Ca^2+ assay dye solution was prepared by further diluting 0.5 mL of Ca^2+ assay dye stock solution with 10 mL of assay buffer. The medium of the cells was removed and immediately 100 μL of the Ca^2+ assay dye solution was dispensed into each well followed by incubation at 37° C. and 5% CO2 for 50 minutes to incorporate the Ca^2+ dye into the cells. The cell plate was then placed in the Flexstation (Molecular Devices) for 20 minutes at 37° C. Compounds were dissolved in 100% DMSO and diluted to desired concentrations with assay buffer and placed in the Flexstation simultaneously with the cell plate for 20 minute incubation at 37° C. prior to reading. Fluorescence intensity was measured immediately following compound addition (25 μL/well) on the Flexstation at an excitation wavelength of 485 nm and an emission wavelength of 525 with 515 nm auto cutoff. The resulting increase in fluorescence intensities corresponds to increases in intracellular Ca^2+ levels.
Compounds were dissolved in 100% DMSO to a concentration of 20 mM to provide stock solutions. To determine activity against human GPR120, compounds were added with human GPR120 stably expressing cells (described above), at eight desired concentrations ranging from 0.00001 to 20 μM, in 96 well plates and fluorescence intensities were measured for 90 seconds with 2-second intervals. An EC50 value (concentration of the GPR120 agonist where 50% of the agonist's maximal activity is observed) was calculated using the changes (Max-Min) of fluorescence intensity.
To determine percent activity for a tested compound, the fluorescence intensity value obtained at a particular concentration were compared to the maximal fluorescence intensity value obtained for reference compound GW9508 (4-[[(3-phenoxyphenyl)methyl]amino]benzene propanoic acid; British Journal of Pharmacology 2006 148, 619-628) or the compound of Example 25. When GW9508 was used as the reference compound, the maximal activity of GW9508 at 6.7 μM was designated as 100% activity. When the compound of Example 25 was used as the reference compound, the maximal activity of the compound of Example 25 at 2.5 μM was designated as 100% activity. Typically, the GW9508 activity reached a maximum at a concentration of approximately 6.7 μM and typically the compound of Example 25 reached a maximum activity at approximately 2.5 μM.

Row | Molecule | concentration at which activity reached a maximum | % Activity (Ex. 25 Reference Compound) [%] | EC50 [µM]
1 | 4-[[(3-phenoxyphenyl)methyl]amino]benzene propanoic acid [GW9508, reference compound] | approximately 6.7 μM |  | 
2 | CC1(C)Cc2cc(F)cc(COc3ccc(C4CC4C(=O)O)cc3)c2O1 (single isomer, unassigned) [Example 131A, 2-(4-((5-fluoro-2,2-dimethyl-2,3-dihydrobenzofuran-7-yl)methoxy)phenyl)cyclopropanecarboxylic acid] |  | 103.75 | 
3 | CC1(C)Cc2cc(F)cc(COc3ccc(C4CC4C(=O)O)cc3)c2O1 (single isomer, unassigned) [Example 131B, 2-(4-((5-fluoro-2,2-dimethyl-2,3-dihydrobenzofuran-7-yl)methoxy)phenyl)cyclopropanecarboxylic acid] |  | 105.8 | 
4 | CC1(C)Cc2cc(F)cc(COc3c(F)cc(CC4CC4C(=O)O)cc3F)c2O1 (single isomer, unassigned) [Example 184A, 2-(3,5-difluoro-4-((5-fluoro-2,2-dimethyl-2,3-dihydrobenzofuran-7-yl)methoxy)benzyl)cyclopropanecarboxylic acid] |  | 95.58 | 
5 | CC1(C)Cc2cc(F)cc(COc3c(F)cc(CC4CC4C(=O)O)cc3F)c2O1 (single isomer, unassigned) [Example 184B, 2-(3,5-difluoro-4-((5-fluoro-2,2-dimethyl-2,3-dihydrobenzofuran-7-yl)methoxy)benzyl)cyclopropanecarboxylic acid] |  | 130.66 | 
6 | CC1(C)Cc2cccc(COc3c(F)cc(CCC(=O)O)cc3F)c2O1 [Example 25, 3-(4-((2,2-dimethyl-2,3-dihydrobenzofuran-7-yl)methoxy)-3,5-difluorophenyl)propanoic acid] | approximately 2.5 μM |  | 
7 | CC(Cc1ccc(OCc2ccc(F)c3c2OC(C)(C)C3)cc1)C(=O)O (stereo not shown) [Example 30, 3-(4-((4-fluoro-2,2-dimethyl-2,3-dihydrobenzofuran-7-yl)methoxy)phenyl)-2-methylpropanoic acid] |  |  | 1 to 10
8 | CC1(C)Cc2c(C(F)(F)F)ccc(COc3c(F)cc(C4CC4C(=O)O)cc3F)c2O1 (stereo not shown) [Example 31, 2-(4-((2,2-dimethyl-4-(trifluoromethyl)-2,3-dihydrobenzofuran-7-yl)methoxy)-3,5-difluorophenyl)cyclopropanecarboxylic acid] |  |  | 1 to 10
9 | CC(Cc1cc(F)c(OCc2ccc(C(F)(F)F)c3c2OC(C)(C)C3)c(F)c1)C(=O)O (stereo not shown) [Example 32, 3-(4-((2,2-dimethyl-4-(trifluoromethyl)-2,3-dihydrobenzofuran-7-yl)methoxy)-3,5-difluorophenyl)-2-methylpropanoic acid] |  |  | 1 to 10
10 | CC(Cc1ccc(OCc2ccc(C(F)(F)F)c3c2OC(C)(C)C3)c(F)c1)C(=O)O (stereo not shown) [Example 33, 3-(4-((2,2-dimethyl-4-(trifluoromethyl)-2,3-dihydrobenzofuran-7-yl)methoxy)-3-fluorophenyl)-2-methylpropanoic acid] |  |  | 1 to 10
11 | CC1(C)Cc2cc(Cl)cc(COc3c(F)cc(C4CC4CC(=O)O)cc3F)c2O1 (stereo not shown) [Example 41, 2-(2-(4-((5-chloro-2,2-dimethyl-2,3-dihydrobenzofuran-7-yl)methoxy)-3,5-difluorophenyl)cyclopropyl)acetic acid] |  | 116.46 | 
12 | CC(Cc1cc(F)c(OCc2c(F)c(F)cc3c2OC(C)(C)C3)c(F)c1)C(=O)O (stereo not shown) [Example 42, 3-(4-((5,6-difluoro-2,2-dimethyl-2,3-dihydrobenzofuran-7-yl)methoxy)-3,5-difluorophenyl)-2-methylpropanoic acid] |  | 140.94 | 
13 | CC(Cc1ccc(COc2cccc3c2OC(C)(C)C3)c(F)c1)C(=O)O (stereo not shown) [Example 44, 3-(4-(((2,2-dimethyl-2,3-dihydrobenzofuran-7-yl)oxy)methyl)-3-fluorophenyl)-2-methylpropanoic acid] |  | 157.14 | 
14 | CC(Cc1ccc(OCc2cc(F)cc3c2OCOC3)cc1)C(=O)O (stereo not shown) [Example 45, 3-(4-((6-fluoro-4H-benzo[d][1,3]dioxin-8-yl)methoxy)phenyl)-2-methylpropanoic acid] |  | 79.58 | 
15 | Cc1cc(OCc2cc(F)cc3c2OC(C)(C)C3)ccc1CCC(=O)O [Example 46, 3-(4-((5-fluoro-2,2-dimethyl-2,3-dihydrobenzofuran-7-yl)methoxy)-2-methylphenyl)propanoic acid] |  | 113.55 | 1 to 10
16 | CC1(C)Cc2cc(F)cc(COc3ccc(CCC(=O)O)c(Cl)c3)c2O1 [Example 47, 3-(2-chloro-4-((5-fluoro-2,2-dimethyl-2,3-dihydrobenzofuran-7-yl)methoxy)phenyl)propanoic acid] |  | 111.18 | 1 to 10
17 | CC1(C)Cc2cc(F)cc(COc3ccc(CCC(=O)O)c(F)c3)c2O1 [Example 48, 3-(2-fluoro-4-((5-fluoro-2,2-dimethyl-2,3-dihydrobenzofuran-7-yl)methoxy)phenyl)propanoic acid] |  |  | 1 to 10
18 | CC1(C)Cc2cc(F)cc(COc3cc(F)c(CCC(=O)O)c(F)c3)c2O1 [Example 49, 3-(2,6-difluoro-4-((5-fluoro-2,2-dimethyl-2,3-dihydrobenzofuran-7-yl)methoxy)phenyl)propanoic acid] |  |  | 1 to 10
19 | COc1cc(OCc2cc(F)cc3c2OC(C)(C)C3)ccc1CCC(=O)O [Example 50, 3-(4-((5-fluoro-2,2-dimethyl-2,3-dihydrobenzofuran-7-yl)methoxy)-2-methoxyphenyl)propanoic acid] |  | 129.78 | 1 to 10
20 | Cc1cc(OCc2cc(Cl)cc3c2OC(C)(C)C3)ccc1CCC(=O)O [Example 51, 3-(4-((5-chloro-2,2-dimethyl-2,3-dihydrobenzofuran-7-yl)methoxy)-2-methylphenyl)propanoic acid] |  |  | 1 to 10
21 | CC1(C)Cc2cc(Cl)cc(COc3ccc(CCC(=O)O)c(Cl)c3)c2O1 [Example 52, 3-(2-chloro-4-((5-chloro-2,2-dimethyl-2,3-dihydrobenzofuran-7-yl)methoxy)phenyl)-propanoic acid] |  |  | 1 to 10
22 | CC1(C)Cc2cc(Cl)cc(COc3ccc(CCC(=O)O)c(F)c3)c2O1 [Example 53, 3-(4-((5-chloro-2,2-dimethyl-2,3-dihydrobenzofuran-7-yl)methoxy)-2-fluorophenyl)-propanoic acid] |  | 143.19 | 1 to 10
23 | CC1(C)Cc2cc(Cl)cc(COc3cc(F)c(CCC(=O)O)c(F)c3)c2O1 [Example 54, 3-(4-((5-chloro-2,2-dimethyl-2,3-dihydrobenzofuran-7-yl)methoxy)-2,6-difluorophenyl)propanoic acid] |  | 138.97 | 1 to 10
24 | COc1cc(OCc2cc(Cl)cc3c2OC(C)(C)C3)ccc1CCC(=O)O [Example 55, 3-(4-((5-chloro-2,2-dimethyl-2,3-dihydrobenzofuran-7-yl)methoxy)-2-methoxyphenyl)propanoic acid] |  |  | 1 to 10
25 | COc1cc(CCC(=O)O)c(Br)cc1OCc1cc(F)cc2c1OC(C)(C)C2 [Example 56, 3-(2-bromo-4-((5-fluoro-2,2-dimethyl-2,3-dihydrobenzofuran-7-yl)methoxy)-5-methoxyphenyl)propanoic acid] |  | 108.51 | 1 to 10
